We go through 46 compounds from the supplement of paper PMC3974653.

Counter-ions that a name gives are not always drawn.

Test [1] concerns MTT (mouse pheochromocytoma). The test is described as follows: IC50 of cell viability (ATP content); AC50 where efficacy is positive. To be noted: (24 or 48 h).
In test [2] the test system is MTT (mouse pheochromocytoma). The test is described as follows: efficacy (maximal response) relative to doxorubicin = -100% and DMSO = 0%; higher = less inhibition of viability. To be noted: (24 or 48 h).

With `CCNC(=O)[C@@H]1CCCN1C(=O)[C@H](CCCNC(=N)N)NC(=O)[C@H](CC(C)C)NC(=O)[C@@H](Cc1c[nH]c2ccccc12)NC(=O)[C@H](Cc1ccc(O)cc1)NC(=O)[C@H](CO)NC(=O)[C@H](Cc1c[nH]c2ccccc12)NC(=O)[C@H](Cc1c[nH]cn1)NC(=O)[C@@H]1CCC(=O)N1` [DESLORELIN ACETATE], the “IC50 of cell viability” value in test [1] is 2.99 µM. Besides, the efficacy in test [2] was -88.5%.

On to `CCN1/C(=C/C=C/C=C/c2sc3ccccc3[n+]2CC)Sc2ccccc21` [DITHIAZANINE IODIDE], for which, in test [1], the “IC50 of cell viability” value is 18.8 µM. The efficacy in test [2] is -109%.

As to `Cc1cc(N)c2ccccc2[n+]1CCCCCCCCCC[n+]1c(C)cc(N)c2ccccc21` [Dequalinium dichloride], in test [1], the “IC50 of cell viability” value came to 11.4 µM. For the same compound, the efficacy in test [2] is -81.5%.

Regarding `CCCCCCCC[N+](C)(C)CCCCCCCC` [Dioctyl Dimethyl Ammonium Chloride], the “IC50 of cell viability” value in test [1] came out at 0.119 µM. Moreover, the efficacy in test [2] was -39.1%.

`CCCCCCCC[N+](C)(C)CCCCCCCC` [Dioctyldimethylammonium chloride]: the “IC50 of cell viability” value in test [1] was found to be 0.531 µM. Further, in test [2], the efficacy was -48.6%.

`[O-][n+]1ccccc1SSc1cccc[n+]1[O-]` [Dipyrithione]: the “IC50 of cell viability” value in test [1] was 1.5 µM. Besides, the efficacy in test [2] is -81%.

With `CCCCCCCCCCCC[N+](C)(C)CCOc1ccccc1` [Domiphen bromide], the “IC50 of cell viability” value in test [1] stood at 15 µM. Also, in test [2], the efficacy is -99.3%.

Consider `CC(C)(C)c1ccc(C(=O)CCCN2CCC(OC(c3ccccc3)c3ccccc3)CC2)cc1` [Ebastine], for which, in test [1], the “IC50 of cell viability” value was found to be 9.44 µM. Besides, in test [2], the efficacy is -49.3%.

As for `CCOc1ccc(Cc2nccc3cc(OCC)c(OCC)cc23)cc1OCC` [Ethaverine hydrochloride], the “IC50 of cell viability” value in test [1] is 3.6 µM. The efficacy in test [2] was -60%.

With `CCOc1ccc(/N=N/c2ccc(N)cc2N)cc1` [Ethoxazene hydrochloride], the “IC50 of cell viability” value in test [1] is 11.9 µM. In test [2], the efficacy was -57.4%.

For the compound `O=S(=O)([O-])c1ccc2c(/N=N/c3ccc(S(=O)(=O)[O-])c4ccccc34)c(O)c(S(=O)(=O)[O-])cc2c1` [FD & C Red Dye No. 2], in test [1], the “IC50 of cell viability” value stood at 16.8 µM. In test [2], the efficacy is -95.8%.

For `COCC(=O)NC1=CC(SC2=CC=CC=C2)=CC=C1\N=C(/NC(=O)OC)NC(=O)OC` [FEBANTEL], the “IC50 of cell viability” value in test [1] turned out to be 18.8 µM. Moreover, the efficacy in test [2] is -48%.

As to `N#Cc1nn(-c2c(Cl)cc(C(F)(F)F)cc2Cl)c(N)c1[S+]([O-])C(F)(F)F` (configuration not stated) [FIPRONIL], in test [1], the “IC50 of cell viability” value turned out to be 23.7 µM. In addition, in test [2], the efficacy was -88.6%.

In the case of `O=C(Nc1cccc(C(F)(F)F)c1)c1cc(Br)cc(Br)c1O` [FLUOROSALAN], the “IC50 of cell viability” value in test [1] came out at 2.66 µM. For the same compound, the efficacy in test [2] is -35.6%.

On to `COC(=O)Nc1nc2cc(Sc3ccccc3)ccc2[nH]1` [Fenbendazole], for which the “IC50 of cell viability” value in test [1] came out at 1.01 µM. Further, the efficacy in test [2] was -61.4%.

Regarding `CN1CC[C@@H]([C@@H](O)C1)C2=C(O)C=C(O)C3=C2O\C(=C/C3=O)C4=C(Cl)C=CC=C4` [Flavopiridol hydrochloride hydrate], in test [1], the “IC50 of cell viability” value was found to be 1.88 µM. In test [2], the efficacy is -71.3%.

On to `Cc1cc(O)c2c3c4c(cc(O)c13)C(C)(C)C(=O)c1c(O)cc(O)c(c1-4)C2=O` [HELIOMYCINUM], for which the “IC50 of cell viability” value in test [1] was determined as 3.35 µM. Moreover, the efficacy in test [2] is -46.4%.

As to `CC[n+]1c(-c2ccccc2)c2cc(N)ccc2c2ccc(N)cc21.[Br-]` [HOMIDIUM BROMIDE], in test [1], the “IC50 of cell viability” value was determined as 11.9 µM. Moreover, the efficacy in test [2] was -34.1%.

`COC(=O)C[C@](O)(CCCC(C)(C)O)C(=O)O[C@H]\1[C@H]2C3=CC4=C(OCO4)C=C3CCN5CCC[C@]25\C=C1OC` [Homoharringtonine]: the “IC50 of cell viability” value in test [1] turned out to be 0.237 µM. Also, the efficacy in test [2] was -73.7%.

Consider `Cl.CCC1=C2CN3C(=O)\C4=C(/C=C3/C2=NC5=CC=C(OC(=O)N6CCC(CC6)N7CCCCC7)C=C15)[C@@](O)(CC)C(=O)OC4` [IRINOTECAN HYDROCHLORIDE], for which the “IC50 of cell viability” value in test [1] was determined as 11.9 µM. In addition, the efficacy in test [2] is -66.8%.

As to `CCC(C(=O)C(C)C(O)C(C)CCc1ccc(C)c(O)c1C(=O)[O-])C1OC(CC)(C2CC[C@@](O)(CC)C(C)O2)CC1C.[Na+]` (some centres not stated) [LASALOCID SODIUM], in test [1], the “IC50 of cell viability” value stood at 4.22 µM. Besides, the efficacy in test [2] is -40.1%.

As for `CCCCCCCCCCCC[n+]1ccc2ccccc2c1` [LAURYL ISOQUINOLINIUM BROMIDE], the “IC50 of cell viability” value in test [1] came out at 0.376 µM. Moreover, the efficacy in test [2] was -31.3%.

On to `C[C@]12O[C@H](C[C@]1(O)CO)n1c3ccccc3c3c4c(c5c6ccccc6n2c5c31)CNC4=O` [LESTAURTINIB], for which, in test [1], the “IC50 of cell viability” value amounted to 2.66 µM. Besides, the efficacy in test [2] is -83.2%.

Consider `CN(C)C1=CC=C(C=C1)C(=C2\C=C/C(/C=C2)=[N+](/C)C)\C3=C(O)C(=CC4=CC(=CC=C34)S([O-])(=O)=O)S([O-])(=O)=O` [LISSAMINE GREEN B], for which the “IC50 of cell viability” value in test [1] was determined as 6.68 µM. In test [2], the efficacy is -54.2%.

Consider `CN(CCCN1c2ccccc2CCc2ccccc21)CC(=O)c1ccc(Cl)cc1` [LOFEPRAMINE HYDROCHLORIDE], for which the “IC50 of cell viability” value in test [1] stood at 26.6 µM. Further, the efficacy in test [2] is -62.9%.

On to `Oc1cccc[c]1[Hg][Cl]` [MERCUFENOL CHLORIDE], for which the “IC50 of cell viability” value in test [1] was found to be 2.99 µM. Besides, the efficacy in test [2] is -83.5%.

As to `C\N=C1/C=C\C(\C=C1)=C(/C2=CC=C(C=C2)N(C)C)C3=CC=C(C=C3)N(C)C` [METHYL VIOLET], the “IC50 of cell viability” value in test [1] was determined as 7.5 µM. The efficacy in test [2] was -70.3%.

`CO[C@@]12[C@H](COC(N)=O)C\3=C(/N1C[C@H]4N[C@@H]24)C(=O)\C(=C(N)/C3=O)C` [MITOMYCIN C]: the “IC50 of cell viability” value in test [1] is 1.5 µM. Besides, the efficacy in test [2] was -34.6%.

For `CCCCCCCCCCCCCC[n+]1ccc(C)cc1` [MYRISTYL-GAMMA-PICOLINIUM CHLORIDE], in test [1], the “IC50 of cell viability” value was determined as 0.531 µM. Further, the efficacy in test [2] is -39.7%.

`CN(C)C1=CC=C(C=C1)C(C2=CC=CC=C2)=C/3\C=C/C(/C=C3)=[N+](C)C` [Malachite Green Oxalate]: the “IC50 of cell viability” value in test [1] came out at 8.41 µM. For the same compound, the efficacy in test [2] was -61.3%.

In the case of `COC(=O)Nc1nc2cc(C(=O)c3ccccc3)ccc2[nH]1` [Mebendazole], the “IC50 of cell viability” value in test [1] was 0.64 µM. For the same compound, the efficacy in test [2] was -49.2%.

With `CCCCCCCCCCCCCCCC[N+](C)(C)CC` [Mecetronium ethylsulfate], the “IC50 of cell viability” value in test [1] amounted to 11.9 µM. Besides, the efficacy in test [2] was -78.5%.

In the case of `Cc1cc(O)c2ccccc2c1O` [Menadiol], the “IC50 of cell viability” value in test [1] was found to be 26.6 µM. Moreover, the efficacy in test [2] was -94.6%.

Consider `[Hg+2]` [Mercuric chloride], for which the “IC50 of cell viability” value in test [1] is 2.37 µM. In addition, the efficacy in test [2] is -90.3%.

As to `COCC(=O)O[C@]1(CCN(C)CCCc2nc3ccccc3[nH]2)CCc2cc(F)ccc2[C@@H]1C(C)C.Cl.Cl` [Mibefradil dihydrochloride], in test [1], the “IC50 of cell viability” value stood at 11.9 µM. Moreover, the efficacy in test [2] is -97.9%.

Regarding `Oc1ccc(OCc2ccccc2)cc1` [Monobenzone], in test [1], the “IC50 of cell viability” value turned out to be 10.1 µM. In test [2], the efficacy was -55.4%.

Regarding `CCC(C(=O)O)C1OC(C(C)C(O)C(C)C(=O)C(CC)C2OC3(C=CC(O)C4(CCC(C)(C5CCC(O)(CC)C(C)O5)O4)O3)C(C)CC2C)C(C)CC1C` (configuration not stated) [NARASIN], in test [1], the “IC50 of cell viability” value is 1.68 µM. Moreover, the efficacy in test [2] was -46.7%.

With `COc1cc(-c2ccc(-[n+]3nc(-c4ccccc4)nn3-c3ccc([N+](=O)[O-])cc3)c(OC)c2)ccc1-[n+]1nc(-c2ccccc2)nn1-c1ccc([N+](=O)[O-])cc1` [NITROBLUE TETRAZOLIUM CHLORIDE], the “IC50 of cell viability” value in test [1] is 21.1 µM. In addition, the efficacy in test [2] is -107%.

Turning to `O=C(Nc1ccc([N+](=O)[O-])cc1)Nc1ccc([N+](=O)[O-])cc1` [Nicarbazin], in test [1], the “IC50 of cell viability” value was found to be 10.6 µM. The efficacy in test [2] is -44.1%.

Take `O=C(Nc1ccc([N+](=O)[O-])cc1Cl)c1cc(Cl)ccc1O` [Niclosamide]: the “IC50 of cell viability” value in test [1] turned out to be 0.473 µM. Further, the efficacy in test [2] was -41.1%.

For `O=[N+]([O-])c1ccc(O)c2ncccc12` [Nitroxoline], the “IC50 of cell viability” value in test [1] is 21.1 µM. The efficacy in test [2] was -85.8%.

With `COC(=O)Nc1nc2cc(C(=O)c3cccs3)ccc2[nH]1` [Nocodazole], the “IC50 of cell viability” value in test [1] worked out at 0.531 µM. Moreover, the efficacy in test [2] was -60.2%.

Regarding `C[N+]1(CC2COC(c3ccccc3)(C3CCCCC3)O2)CCCCC1` (configuration not stated) [OXAPIUM IODIDE], the “IC50 of cell viability” value in test [1] was 6.68 µM. In test [2], the efficacy is -60.2%.

With `CCCOc1ccc2[nH]c(NC(=O)OC)nc2c1` [OXIBENDAZOLE], the “IC50 of cell viability” value in test [1] came to 0.531 µM. The efficacy in test [2] was -39%.

With `Oc1cc[c]([Hg][Cl])cc1` [PARA-CHLOROMERCURIPHENOL], the “IC50 of cell viability” value in test [1] came to 2.37 µM. Besides, in test [2], the efficacy was -97.8%.

Turning to `CC(=O)[O][Hg][c]1ccccc1` [PHENYLMERCURIC ACETATE], the “IC50 of cell viability” value in test [1] stood at 2.37 µM. The efficacy in test [2] is -93.4%.
